Test results reported in patent US10889812B2, “Short non-coding protein regulatory RNAs (sprRNAs) and methods of use” (University of Maryland, Baltimore, priority 2014, dated 2021).
“Also recorded” adds a separate entry of the source. m = 2'-O-methyl; r = 2'-OH (RNA)

Experiments:
p-ERM = experiment: IP with anti-p-ERM antibody followed by RT-PCR in transfected H1792 cells; type: binding, human; details: H1792 cells transfected with the oligonucleotide
Source text: We next wanted to determine the site critical for piR-L-163's binding toP-ERM. We first analyzed the piR-L-163 sequence and identified a candidate motif “UUNNUUUNNUU” (SEQ ID NO:495) with potentially critical for the binding (FIG. 5a). We then generated 5 mutant forms of piR-L-163 named as M1-M5 (FIG. 5b and Table 3) to test their potential impact on the p-ERM binding. For this experiment, we used H1792 cells because these cells expressed extremely low level of endogenous piR-L-163 but considerable amount of p-ERM (FIG. 5c and FIG. 11a). H1792 cells were transfected with Scr (control), Ant-163, piR-L-163 (WT), or Mutant 1 (M1) to Mutant 5 (M5) RNA oligonucletides, respectively. An anti-p-ERM antibody was used for IP followed by RT-PCR using primers specific for Scr, Ant-163, piR-L-163, or M1-M5 (Table 6) to detect the corresponding oligonucleotides.
To amplify sncRNAs, we added an adaptor to the 3′ end, a process including adaptor ligation, RT and PCR (de Vanssay, A. et al. Paramutation in Drosophila linked to emergence of a piRNA-producing locus. Nature 490, 112-115 (2012); Li, Z. et al. Characterization of viral and human RNAs smaller than canonical MicroRNAs. J Virol. 83, 12751-12758 (2009)). For adaptor ligation, the adaptor /5′rapp/CTGTAGGCACCATCAAT/3′ddc/ (SEQ ID NO:499) with both 5′ and 3′ modification was used. Briefly, mixed 1 μl (10 pmol, ˜55 ng) of RNA 3′ adaptor and 4.4 μl (˜100 ng) of purified sncRNAs in a 1.5 ml EP tube; Incubated at 72° C. for 2 min, then placed on ice immediately and kept it on ice for at least 1 min; Added the following reagents (New England Biolabs) to the above tube: 0.8 μl 10×RNA ligase buffer, 1 μl RNase inhibitor, and 1 μl single strand RNA ligase; Mixed it well and incubated at 37° C. for 1 hr, then terminated the reaction at 65° C. for 15 min. For RT, SuperScript™ III First-Strand Synthesis System (Invitrogen) was used according to the manufacturer's instructions with gene specific primer (5′-[…]-3′) (SEQ ID NO:500). For PCR, a common reverse primer (5′-[…]-3′) (SEQ ID NO:501) and primers specific for individual sncRNAs (Table 6). Amplification conditions were denaturation at 95° C. for 30 s (5 min for the first cycle), annealing at 60° C. for 20 s and extension at 72° C. for 20 s (2 min for the last cycle) for 25 cycles.
For IP using anti-human Moesin or p-ERM antibodies, anti-Moesin (Clone Q480, Catalog No. 3150, Cell Signaling) or anti-p-ERM (Clone 41A3, Catalog No. 3149, Cell Signaling) antibodies were used and a rabbit IgG was used as a control. Briefly, Saturated protein G agarose beads (Sigma-Aldrich) with rabbit IgG, anti-Moesin or anti-p-ERM antibodies, respectively (1 μg antibody was used for 4 μl agarose beads) at 4° C. for 3 hrs, centrifuged at 2,200×g for 5 min, and discarded the upper aqueous phase; (2) Protein extracts prepared from cells using lysis buffer (20 mM Tris-cl, pH7.6, 150 mM NaCl, 20 mM KCl, 1.5 mM MgCl2, 0.5% NP-40, 0.5 mM PMSF) were pre-cleared using protein G agarose at 4° C. for 2 hrs, centrifuged at 2,200×g for 5 min, and transferred the upper aqueous phase to above tubes with agarose beads saturated with antibodies, respectively; Kept the tubes rotating overnight at 4° C., centrifuged at 2,200×g for 5 min, and washed the beads with lysis buffer twice; Extracted total RNAs from beads using Trizol Reagent (Life Technologies); Amplification of piR-L-163 or its mutants was performed according to the steps described in the “RT-PCR” section.

H1792 cells = experiment: Trans-well invasion assay; type: cell-based, human; details: H1792, vs control RNA oligonucleotides
Source text: We then tested the potential impact of piR-L-163 in cell migration and invasion, two of the properties involving ERM's biological functions (Fehon, R. G., Mclatchey, A. I. & Bretscher, A. Organizing the cell cortex: the role of ERM proteins. Nat Rev Mol Cell Biol. 11, 276-287 (2010); Hunter, K. W. Ezrin, a key component in tumor metastasis. Trends Mol. Med. 10, 201-204 (2004); Luo, Y. et al. Recognition of CD146 as an ERM-binding protein offers novel mechanisms for melanoma cell migration. Oncogene 31, 306-321 (2013); Clucas, J. & Valderrama, F. ERM proteins in cancer progression. J Cell Sci. 128, 1253 (2015)).
Briefly, 24 hrs after transfection, 6×10^4 cells were placed in the upper chamber of Matrigel Invasion Chambers (BD Bioscience) with growth factor-free Keratinocyte-SFM and the bottom chamber were exposed to Keratinocyte-SFM medium supplemented with L-Glutamine, prequalified human recombinant EGF 1-53 and BPE. Invading cells were evaluated after 12 hrs according to the manufacturer's instruction. The numbers of invading cells were adjusted 15% downwards for Ant-163 treated cells or 15% upwards for piR-L-163 treated cells to compensate the differences for the proliferation rates.

MDM2 = experiment: Western blot of MDM2 cleavage and phosphorylation in SCC cells; type: cell-based, human; details: SCC cells transfected, vs Scr RNA
Source text: Primary antibodies used were: anti-Moesin (1:1,000, Clone Q480, Catalog No. 3150, Cell Signaling), anti-p-ERM (Clone 41A3, Catalog No. 3149, Cell Signaling), anti-Moesin (Clone 38/Moesin, Catalog No. 610401, BD Transduction Laboratories), anti-p-Moesin (Thr558, Catalog No. 12895, Sanra Cruz), anti-β-actin (1:5,000, Catalog No. A228, Sigma-Aldrich), anti-EBP50 (1:100, Clone 6/EBP50, Catalog No. 61160, BD Transduction Laboratories), anti-F-actin (1:100, Clone NH3, Catalog No. MA1-80729, Thermor Fisher), anti-p-Wee 1 (Se53, 1:1000, Catalog No. sc-130223, Sanra Cruz), anti-Wee 1 (C-20, 1:1000, Catalog No. sc-325, Sanra Cruz), anti-p-Cdc2 (Tyr15, 1:1000, Catalog No. 9111, Cell Signaling), anti-p-Cdk (Thr14/Tyr15-R, 1:1000, Catalog No. sc-28435-R, Sanra Cruz), anti-Cdc2 p34 (H-297, 1:1000, Catalog No. sc-747, Sanra Cruz), anti-p-Cdc25C (Ser198, 1:1000, Catalog No. 9529, Cell Signaling), anti-CDK2 (78B2, 1:1000, Catalog No. 2546, Cell Signaling), anti-p-Histone H2AX (Ser139, 20E3, :1000, Catalog No. 9718, Cell Signaling), and anti-GFP (N-terminal, 1:4000, Catalog No. G1544, Sigma). Secondary antibodies used were: Goat anti-Mouse (1:2,500, Catalog No. 31160, Pierce), and Goat anti-Rabbit (1:2,500, Catalog No. 31460, Pierce). Cells were lysed in RIPA buffer (Sigma) on ice after washed in PBS twice, centrifuge at […] for 10 min at 4° C. Protein in supernatant was qualified using BCA™ protein assay kit (Thermo Scitific) and denatured in SDS loading buffer in boiling water, run 10% SDS-PAGE gel and transferred to nitrocellulose membrane (Thermo Scitific). […]
Next, we wanted to explore potential mechanism of piR-L-138-mediated apoptosis inhibition in CDDP treated lung SCC cells. We first analyzed cleaved PARP, a protein marker indicative of apoptosis, and found it was increased in the SCC cells pre-treated with Ant-138 compared with Scr pre-treated cells (FIG. 15d). As both of the SCC cell lines harbor p53 mutations, we analyzed mouse double minute 2 homolog (MDM2) which has been implicated in apoptosis including p53-independent pathway (Bohlman S, Manfredi J J. p53-independent effects of Mdm2. Subcell Biochem. 85,235-46 (2014); Bouska A, Eischen C M. Mdm2 affects genome stability independent of p53. Cancer Res. 69, 1697-701 (2009); Zhang, Z., Li, M., Wang, H., Agrawal, S., and Zhang, R. Antisense therapy targeting MDM2 oncogene in prostate cancer: Effects on proliferation, apoptosis, multiple gene expression, and chemotherapy. Proc. Natl. Acad. Sci. 100, 11636-11641 (2003); Zhang Z, Wang H, Li M, Agrawal S, Chen X, Zhang R. MDM2 Is a Negative Regulator of p21WAF1/CIP1, Independent of p53. […]

Row | Substance | oligonucleotide detected by RT-PCR in anti-p-ERM IP products (binding to p-ERM) (p-ERM) | other results
1 | M1: mutant form of piR-L-163, RNA oligonucleotide, SEQ ID NO:519 (AUAUCAUGAUGACACGACGACACUCUGACC; (30)..(30) 2′-O-methylation) | no RT-PCR band could be detected | invasion capability (H1792 cells): no impact
2 | M2: mutant form of piR-L-163, RNA oligonucleotide, SEQ ID NO:520 (AUAUCAUGAUGUUACGACGAUUCUCUGACC; sugars from the 5' end r29 m1, backbone not given here; further chemistry not fully specified) | no RT-PCR band could be detected | 
3 | M3: mutant form of piR-L-163, RNA oligonucleotide, SEQ ID NO:521 (AUAUCAUGAUGUUACGCUGAUUCUCUGACC; sugars from the 5' end r29 m1, backbone not given here; further chemistry not fully specified) | RT-PCR bands with expected sizes were detected; also recorded: substantially weaker | 
4 | M4: mutant form of piR-L-163, RNA oligonucleotide, SEQ ID NO:522 (AUAUCAUGAUGUUACUCUGAUUCUCUGACC; sugars from the 5' end r29 m1, backbone not given here; further chemistry not fully specified) | RT-PCR bands with expected sizes were detected | 
5 | M5: mutant form of piR-L-163, RNA oligonucleotide, SEQ ID NO:523 (AUUUCAUGAUGUUACUUUGAUUCUCUGACC; sugars from the 5' end r29 m1, backbone not given here; further chemistry not fully specified) | RT-PCR bands with expected sizes were detected | 
6 | Scr: scrambled DNA or RNA oligonucleotides used as control (SEQ ID NO:506 DNA, SEQ ID NO:524 RNA) (DNA GATACCAGGGACATACGCTTGATCCTAGC; chain GAUACCAAGGACAUACGCUUAUGCAUGCUA; DNA: DNA, backbone and methylation of C not given here; chain: chemistry not given here) [reference compound] | no RT-PCR band could be detected | 
7 | piR-L-138: sprRNA, SEQ ID NO:268; piRNA-L down-regulated in NSCLC cells, up-regulated upon cisplatin (ACUUUAGCUCUAGAAUUACUCUGAGACCU; expressed or natural sequence; listed as Homo sapiens) |  | MDM2 cleavage (MDM2): enhanced MDM2 cleavage; Serine-166 phosphorylation in cleaved MDM2 (MDM2): reduced Serine-166 phosphorylation in cleaved MDM2
